# In paper PMC5560435 (Journal of fluorine chemistry, 2017):
# Like-named read-outs stand apart in the source and are kept apart here.
# What was measured:
# [1] = tested on: CSC-enriched (CD133++) HCT-116 human colon cancer cell line; settings: cited from earlier work
# tubulin [2] = settings: cited from earlier work
# microtubules [3] = settings: cited from earlier work
# CYP 3A4 = CYP 3A4 in humans; cited from earlier work
# [4] = tested on: MCF7-S human breast carcinoma; settings: read-out: IC50 MCF7-S (breast); 72 h drug exposure; cited from earlier work
# [5] = tested on: NCI/ADR multidrug-resistant human ovarian carcinoma; settings: cited from earlier work; for R/S resistance factor: (IC50 NCI/ADR)/(IC50 MCF7-S); for IC50: read-out: IC50 NCI/ADR (ovarian), 72 h drug exposure
# [6] = tested on: HT-29 human colon cancer cell line; settings: read-out: IC50 HT-29 (colon); 72 h drug exposure; cited from earlier work
# [7] = tested on: PANC-1 human pancreatic cancer cell line; settings: read-out: IC50 PANC-1 (pancreatic); 72 h drug exposure; cited from earlier work
# [8] = tested on: microtubule protein (tubulin); settings: microtubule protein 1 mg/mL, 37 °C, Drug 10 μM; cited from earlier work
# [9] = tested on: CSC-enriched (CD133++) HCT-116 human colon cancer cell line; assay: Cytotoxicity against CSC-enriched HCT-116; format: cell-based; settings: CSC-enriched HCT-116, from Table 2
# tubulin [10] = assay: Critical concentration of tubulin for microtubule assembly; format: biochemical; settings: from Table 3
# microtubules [11] = assay: Binding to microtubules, fluorescent ligand displacement method; settings: from Table 4
Compound,IC50 [1],IC50 [4],R/S resistance factor [5],IC50 [5],also measured
CC(=O)O[C@@]12CO[C@@H]1C[C@H](O)[C@@]1(C)C(=O)[C@H](OC(=O)C3CC3)C3=C(C)[C@@H](OC(=O)[C@H](O)[C@H](C=C(C)C)NC(=O)OC(C)(C)C)C[C@@](O)([C@@H](OC(=O)c4ccccc4)[C@H]21)C3(C)C [SB-T-1214],0.28 ± 0.1 nM,–,–,–,Critical concentration of tubulin required for microtubule assembly (tubulin [2]): 0.9 ± 0.2 µM; Binding constant with microtubules (microtubules [3]; 26 °C): 12±2 x10^7 M^−1; Binding constant with microtubules (microtubules [3]; 37 °C): 7±1 x10^7 M^−1; Primary metabolism (CYP 3A4): hydroxylation primarily at the two allylic methyl groups of the 3′-isobutenyl group
CC(=O)O[C@@]12CO[C@@H]1C[C@H](O)[C@@]1(C)C(=O)[C@H](OC(=O)N(C)C)C3=C(C)[C@@H](OC(=O)[C@H](O)[C@H](C=C(C)C)NC(=O)OC(C)(C)C)C[C@@](O)([C@@H](OC(=O)c4ccccc4)C12)C3(C)C (some centres unmarked) [SB-T-1216],0.83 ± 0.05 nM,–,–,–,Primary metabolism (CYP 3A4): hydroxylation primarily at the two allylic methyl groups of the 3′-isobutenyl group
CC(=O)O[C@H]1C(=O)[C@@]2(C)C([C@H](OC(=O)c3cccc(N=[N+]=[N-])c3)[C@]3(O)C[C@H](OC(=O)[C@H](O)[C@H](C=C(F)F)NC(=O)OC(C)(C)C)C(C)=C1C3(C)C)[C@]1(OC(C)=O)CO[C@@H]1C[C@@H]2O (some centres unmarked) [SB-T-12851-3],–,0.092 nM,3.7,0.34 nM,–
CC(=O)O[C@H]1C(=O)[C@@]2(C)C([C@H](OC(=O)c3ccccc3)[C@]3(O)C[C@H](OC(=O)[C@H](O)[C@H](C=C(F)F)NC(=O)OC(C)(C)C)C(C)=C1C3(C)C)[C@]1(OC(C)=O)CO[C@@H]1C[C@@H]2O (some centres unmarked) [SB-T-12851],–,0.099 nM,9.6,0.95 nM,IC50 [6]: 0.41 nM; IC50 [7]: 1.19 nM; Rate of GTP-independent tubulin polymerization [8]: much faster than paclitaxel
COc1cccc(C(=O)O[C@H]2[C@@H]3[C@]4(OC(C)=O)CO[C@@H]4C[C@H](O)[C@@]3(C)C(=O)[C@H](OC(=O)C3CC3)C3=C(C)[C@@H](OC(=O)[C@H](O)[C@H](C=C(F)F)NC(=O)OC(C)(C)C)C[C@]2(O)C3(C)C)c1 [SB-T-12852-1],–,0.092 nM,5.2,0.48 nM,–
CC(=O)O[C@@]12CO[C@@H]1C[C@H](O)[C@@]1(C)C(=O)[C@H](OC(=O)C3CC3)C3=C(C)[C@@H](OC(=O)[C@H](O)[C@H](C=C(F)F)NC(=O)OC(C)(C)C)C[C@@](O)([C@@H](OC(=O)c4cccc(F)c4)[C@H]21)C3(C)C [SB-T-12852-2],–,0.071 nM,24,1.72 nM,–
CC(=O)O[C@@]12CO[C@@H]1C[C@H](O)[C@@]1(C)C(=O)[C@H](OC(=O)C3CC3)C3=C(C)[C@@H](OC(=O)[C@H](O)[C@H](C=C(F)F)NC(=O)OC(C)(C)C)C[C@@](O)([C@@H](OC(=O)c4cccc(N=[N+]=[N-])c4)[C@H]21)C3(C)C [SB-T-12852-3],–,0.092 nM,4.9,0.45 nM,–
CC(=O)O[C@@]12CO[C@@H]1C[C@H](O)[C@@]1(C)C(=O)[C@H](OC(=O)C3CC3)C3=C(C)[C@@H](OC(=O)[C@H](O)[C@H](C=C(F)F)NC(=O)OC(C)(C)C)C[C@@](O)([C@@H](OC(=O)c4ccccc4)[C@H]21)C3(C)C [SB-T-12852],–,0.12 nM,50,6 nM,IC50 [6]: 0.85 nM; IC50 [7]: 5.85 nM
CCC(=O)O[C@H]1C(=O)[C@@]2(C)C([C@H](OC(=O)c3ccccc3)[C@]3(O)C[C@H](OC(=O)[C@H](O)[C@H](C=C(F)F)NC(=O)OC(C)(C)C)C(C)=C1C3(C)C)[C@]1(OC(C)=O)CO[C@@H]1C[C@@H]2O (some centres unmarked) [SB-T-12853],–,0.12 nM,10,1.2 nM,IC50 [6]: 0.34 nM; IC50 [7]: 0.65 nM; Rate of GTP-independent tubulin polymerization [8]: much faster than paclitaxel
CC(=O)O[C@@]12CO[C@@H]1C[C@H](O)[C@@]1(C)C(=O)[C@H](OC(=O)N(C)C)C3=C(C)[C@@H](OC(=O)[C@H](O)[C@H](C=C(F)F)NC(=O)OC(C)(C)C)C[C@@](O)([C@@H](OC(=O)c4ccccc4)C12)C3(C)C (some centres unmarked) [SB-T-12854],0.14 ± 0.05 nM,0.13 nM,33,4.3 nM,"times higher potency than conventional anticancer drugs [9]: 230-33,000 times; Potency in inducing tubulin assembly relative to SB-T-1214 (tubulin [10]): three times higher potency than SB-T-1214; times stronger binding to microtubules than paclitaxel (microtubules [11]): ca. 10 times; IC50 [6]: 0.46 nM; IC50 [7]: 1.58 nM; Critical concentration of tubulin required for microtubule assembly (tubulin [2]): 0.3 ± 0.1 µM; Binding constant with microtubules (microtubules [3]; 26 °C): 15±3 x10^7 M^−1; Binding constant with microtubules (microtubules [3]; 37 °C): 10±1 x10^7 M^−1; Rate of GTP-independent tubulin polymerization [8]: much faster than paclitaxel"
COC(=O)O[C@H]1C(=O)[C@@]2(C)C([C@H](OC(=O)c3cccc(OC)c3)[C@]3(O)C[C@H](OC(=O)[C@H](O)[C@H](C=C(F)F)NC(=O)OC(C)(C)C)C(C)=C1C3(C)C)[C@]1(OC(C)=O)CO[C@@H]1C[C@@H]2O (some centres unmarked) [SB-T-12855-1],–,0.078 nM,6.4,0.5 nM,–
COC(=O)O[C@H]1C(=O)[C@@]2(C)C([C@H](OC(=O)c3cccc(N=[N+]=[N-])c3)[C@]3(O)C[C@H](OC(=O)[C@H](O)[C@H](C=C(F)F)NC(=O)OC(C)(C)C)C(C)=C1C3(C)C)[C@]1(OC(C)=O)CO[C@@H]1C[C@@H]2O (some centres unmarked) [SB-T-12855-3],–,0.078 nM,5.3,0.4 nM,–
COC(=O)O[C@H]1C(=O)[C@@]2(C)C([C@H](OC(=O)c3cccc(Cl)c3)[C@]3(O)C[C@H](OC(=O)[C@H](O)[C@H](C=C(F)F)NC(=O)OC(C)(C)C)C(C)=C1C3(C)C)[C@]1(OC(C)=O)CO[C@@H]1C[C@@H]2O (some centres unmarked) [SB-T-12855-4],–,0.099 nM,12,1.16 nM,–
N.N.[Cl][Pt][Cl] [cisplatin],4540 nM,–,–,–,–
COc1cccc2c1C(=O)c1c(O)c3c(c(O)c1C2=O)C[C@@](O)(C(=O)CO)C[C@@H]3O[C@H]1C[C@H](N)[C@H](O)[C@H](C)O1 [doxorubicin],78 ± 28.2 nM,–,–,–,–
CN(Cc1cnc2nc(N)nc(N)c2n1)c1ccc(C(=O)N[C@@H](CCC(=O)O)C(=O)O)cc1 [methotrexate],32.7 ± 11.2 nM,–,–,–,–
"CC(=O)O[C@H]1C(=O)[C@@]2(C)[C@H]([C@H](OC(=O)c3ccccc3)[C@]3(O)C[C@H](OC(=O)[C@H](O)[C@@H](NC(=O)c4ccccc4)c4ccccc4)C(C)=C1C3(C)C)[C@]1(OC(C)=O)CO[C@@H]1C[C@@H]2O [paclitaxel, reference compound]",33.8 ± 3.33 nM,1.2 nM,250,300 nM,IC50 [6]: 3.6 nM; IC50 [7]: 25.7 nM
CC[C@@]1(O)C(=O)OCc2c1cc1n(c2=O)Cc2cc3c(CN(C)C)c(O)ccc3nc2-1 [topotecan],451 ± 12 nM,–,–,–,–
